Experimental data from patent US20240060986A1, “METHOD FOR SELECTING PEPTIDE […] ON PROTEIN CYTOTOXICITY” (priority 2022, published 2024).
No end group written: not given here.

Biological target: T1, main protease (M^pro) of SARS-CoV2 virus (Severe acute respiratory syndrome coronavirus 2, UniProt P0DTD1)
T1 construct: 30 μl of 3CL Protease enzyme solution (0.05 ng/ul) was mixed with 10 μl of peptides; purchased BPS Bioscience 78042-1
Assay: biochemical

PVHPQMQTETGTAHC [Peptide M14] was tested, and the IC50 was 1200 µM.

For RQDLDYQRRRGAGISSTLVQSRK [Peptide M3], the IC50 was 750 µM.
